Source: US7910780B2, “Method for purifying terephthalaldehyde” (LG Chem, Ltd., priority 2006, dated 2011)

Key:
[1] = physchem; conditions: organic solvent or mixture
[2] = Solubility of terephthalaldehyde and major impurities in p-xylene and DMSO; conditions: p-xylene, organic solvent or mixture

Row | Structure (SMILES) | solubility ([1]; 25 °C) | solubility ([1]; 100 °C) | solubility ([2]; 25 °C, in p-xylene (25° C.)) | solubility ([2]; 100 °C, in p-xylene (100° C.))
1 | O=Cc1ccc(O)cc1 [4-HBA, 4-hydroxybenzaldehyde] | < 2000 µg/mL | < 20000 µg/mL |  | 
2 | Oc1ccc(O)cc1 [HQ, hydroquinone] | < 5000 µg/mL | < 5000 µg/mL |  | 
3 | O=C(O)c1ccc(C(=O)O)cc1 [TPA, terephthalic acid] |  | < 20000 µg/mL |  | 
4 | O=Cc1ccc(C(=O)O)cc1 [4-CBA, 4-carboxybenzaldehyde] |  |  | < 2000 µg/mL | < 20000 µg/mL
